Broadly, the Ki is a measure of affinity in units of concentration, obtained from inhibition or displacement.

Where two headings read alike, the source gives them in different places.

Data set [1] addresses T1, Porcine Intestinal Sucrase (Sus scrofa, UniProt P56729).
T1 construct: both chains cut from one SI precursor
The experiment in a line: Inhibition constants against porcine intestinal sucrase. The class given is biochemical. The procedure:
(§1) Porcine Intestinal Sucrase and Maltase. A sucrase-isomaltase complex was extracted from pig small intestine by treatment with urea and then solubilized by digestion with papain. The enzyme-complex was recovered by ethanol precipitation and then further purified by cellulose DE-52 anion exchange chromatography. The activity of sucrase was assayed by incubating an appropriate amount of enzyme at 37° C. in a final volume of 150 μ1 containing 25 mM sodium citrate buffer, pH 6.0, and 30 mM sucrose as substrate. After 30 min. the enzyme was inactivated by heating at 100° C. for 3 min, the reaction mixture centrifuged at 15000×g for 15 min and a 50 µl aliquot of the supernatant removed and the enzymereleased glucose determined by the glucose oxidase-peroxidase method described by Trinder, Ann. Clin. Biochem. 6, 24 (1969). Under the standard assay conditions, the release of glucose was linear up to 10% hydrolysis of the substrate. […] Maltase activity associated with the sucrase-isomaltase complex [Kolinska and Semenze, Biochim. Biophys. Acta 146, 181 (1967)] was assayed in a manner similar to sucrase except that the substrate was 30 mM maltose. Under the standard assay conditions release of glucose was linear up to 8% hydrolysis of the substrate. The specific activity of maltase was 15.2 units/mg protein.
Inhibition constants for the various DNJ derivatives and castanospermine were determined from Lineweaver-Burk plots of the enzyme-catalyzed reaction in the presence and absence of different fixed concentrations of each inhibitor. Incubations using sucrase were for 30 min at a concentration of 90 milliunits/ml and for maltase were for 12 min at a concentration of 80 milliunits/ml.

Data set [2] has as its target T2, Porcine Microsomal Alpha-Glucosidase I (Sus scrofa, UniProt K7N7E7).
T2 construct: Alpha-glucosidase I was isolated from porcine liver microsomes; from tissue; host or cells: porcine liver microsomes
T2 sequence (K7N7E7 1-839): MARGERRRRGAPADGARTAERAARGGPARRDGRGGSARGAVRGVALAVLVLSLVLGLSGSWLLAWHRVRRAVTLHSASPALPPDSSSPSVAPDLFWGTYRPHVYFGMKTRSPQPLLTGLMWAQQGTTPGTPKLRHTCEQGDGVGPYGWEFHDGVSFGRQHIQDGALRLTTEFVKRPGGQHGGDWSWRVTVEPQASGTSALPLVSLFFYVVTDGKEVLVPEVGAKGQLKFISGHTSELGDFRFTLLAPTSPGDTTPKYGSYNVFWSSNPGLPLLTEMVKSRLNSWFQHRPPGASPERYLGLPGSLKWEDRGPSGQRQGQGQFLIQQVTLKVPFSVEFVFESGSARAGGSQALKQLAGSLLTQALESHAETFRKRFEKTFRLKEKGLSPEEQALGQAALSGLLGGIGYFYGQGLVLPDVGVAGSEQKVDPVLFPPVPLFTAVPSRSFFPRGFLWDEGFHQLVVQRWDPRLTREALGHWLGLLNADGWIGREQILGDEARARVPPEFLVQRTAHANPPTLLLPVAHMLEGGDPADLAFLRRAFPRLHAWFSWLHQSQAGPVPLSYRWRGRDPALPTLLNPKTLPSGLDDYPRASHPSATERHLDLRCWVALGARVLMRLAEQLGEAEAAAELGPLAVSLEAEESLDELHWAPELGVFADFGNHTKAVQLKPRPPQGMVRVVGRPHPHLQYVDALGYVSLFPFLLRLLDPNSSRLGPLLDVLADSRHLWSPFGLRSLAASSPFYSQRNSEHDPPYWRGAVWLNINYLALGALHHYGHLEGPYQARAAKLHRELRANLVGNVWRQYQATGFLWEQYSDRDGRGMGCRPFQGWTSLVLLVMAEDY
The experiment in a line: Inhibition constants against porcine microsomal alpha-glucosidase I. In kind it is biochemical. As for the experimental part: Porcine Microsomal Alpha-Glucosidase I. Alpha-glucosidase I was isolated from porcine liver microsomes by an affinity chromatographic method similar to that described by Hettkamp et.al., Eur J. Biochem. 142, 85-90 (1981).
Inhibition constants for the various DNJ derivatives and castanospermine were determined assuming competitive inhibition and were derived from the initial rates for the hydrolysis of [^14 C-Glc]Glc3 Man9 GlcNAc2 (at a concentration of 0.044 μM), at pH7.0 and 37° C. in the presence and absence of several fixed concentrations of each inhibitor.

Data set [3] has as its target T3, Porcine Intestinal Maltase (Sus scrofa, UniProt P56729).
T3 construct: both chains cut from one SI precursor
The experiment in a line: Inhibition constants against porcine intestinal maltase. In kind it is biochemical. The procedure: as §1, with “Under the standard assay conditions release of glucose was linear up to 8% hydrolysis of the substrate. The specific activity of maltase was 15.2 units/mg protein.” left out
Inhibition constants for the various DNJ derivatives and castanospermine were determined from Lineweaver-Burk plots of the enzyme-catalyzed reaction in the presence and absence of different fixed concentrations of each inhibitor. […]

Data set [4] deals with human immunodeficiency virus (HIV). Conditions: at noncytotoxic concentrations; cited from earlier work.
For data set [5], the system named is bovine intestinal alkaline phosphatase. Briefly: Dephosphorylation by alkaline phosphatase (biolability of the phosphate group). The class given is in vitro ADME. Conditions: 1 mM compound, 130 U/ml enzyme, 37° C., pH 9.5, 16 h, assayed by HPAEC. As for the experimental part: N-Butyldeoxynojirimycin-6-phosphate (1 mM) was incubated with bovine intestinal alkaline phosphatase (Sigma Type VII, 130 U/ml) at 37° C. n 0.1 m Na2 Co3 /NaHCO3 buffer, pH 9.5.

The mark [6] stands for this setting: pig small intestine, 30 mM sucrose, pH 6.0, 37° C., 30 min, Lineweaver-Burk plots, read-out: Ki Intestinal Sucrase.
[7] abbreviates: porcine liver microsomes, substrate [14C-Glc]Glc3Man9GlcNAc2 0.044 μM, pH 7.0, 37° C., competitive inhibition assumed, read-out: Ki Microsomal α-Glucosidase I.

T1 sequence (P56729 with tags, fused parts or gaps): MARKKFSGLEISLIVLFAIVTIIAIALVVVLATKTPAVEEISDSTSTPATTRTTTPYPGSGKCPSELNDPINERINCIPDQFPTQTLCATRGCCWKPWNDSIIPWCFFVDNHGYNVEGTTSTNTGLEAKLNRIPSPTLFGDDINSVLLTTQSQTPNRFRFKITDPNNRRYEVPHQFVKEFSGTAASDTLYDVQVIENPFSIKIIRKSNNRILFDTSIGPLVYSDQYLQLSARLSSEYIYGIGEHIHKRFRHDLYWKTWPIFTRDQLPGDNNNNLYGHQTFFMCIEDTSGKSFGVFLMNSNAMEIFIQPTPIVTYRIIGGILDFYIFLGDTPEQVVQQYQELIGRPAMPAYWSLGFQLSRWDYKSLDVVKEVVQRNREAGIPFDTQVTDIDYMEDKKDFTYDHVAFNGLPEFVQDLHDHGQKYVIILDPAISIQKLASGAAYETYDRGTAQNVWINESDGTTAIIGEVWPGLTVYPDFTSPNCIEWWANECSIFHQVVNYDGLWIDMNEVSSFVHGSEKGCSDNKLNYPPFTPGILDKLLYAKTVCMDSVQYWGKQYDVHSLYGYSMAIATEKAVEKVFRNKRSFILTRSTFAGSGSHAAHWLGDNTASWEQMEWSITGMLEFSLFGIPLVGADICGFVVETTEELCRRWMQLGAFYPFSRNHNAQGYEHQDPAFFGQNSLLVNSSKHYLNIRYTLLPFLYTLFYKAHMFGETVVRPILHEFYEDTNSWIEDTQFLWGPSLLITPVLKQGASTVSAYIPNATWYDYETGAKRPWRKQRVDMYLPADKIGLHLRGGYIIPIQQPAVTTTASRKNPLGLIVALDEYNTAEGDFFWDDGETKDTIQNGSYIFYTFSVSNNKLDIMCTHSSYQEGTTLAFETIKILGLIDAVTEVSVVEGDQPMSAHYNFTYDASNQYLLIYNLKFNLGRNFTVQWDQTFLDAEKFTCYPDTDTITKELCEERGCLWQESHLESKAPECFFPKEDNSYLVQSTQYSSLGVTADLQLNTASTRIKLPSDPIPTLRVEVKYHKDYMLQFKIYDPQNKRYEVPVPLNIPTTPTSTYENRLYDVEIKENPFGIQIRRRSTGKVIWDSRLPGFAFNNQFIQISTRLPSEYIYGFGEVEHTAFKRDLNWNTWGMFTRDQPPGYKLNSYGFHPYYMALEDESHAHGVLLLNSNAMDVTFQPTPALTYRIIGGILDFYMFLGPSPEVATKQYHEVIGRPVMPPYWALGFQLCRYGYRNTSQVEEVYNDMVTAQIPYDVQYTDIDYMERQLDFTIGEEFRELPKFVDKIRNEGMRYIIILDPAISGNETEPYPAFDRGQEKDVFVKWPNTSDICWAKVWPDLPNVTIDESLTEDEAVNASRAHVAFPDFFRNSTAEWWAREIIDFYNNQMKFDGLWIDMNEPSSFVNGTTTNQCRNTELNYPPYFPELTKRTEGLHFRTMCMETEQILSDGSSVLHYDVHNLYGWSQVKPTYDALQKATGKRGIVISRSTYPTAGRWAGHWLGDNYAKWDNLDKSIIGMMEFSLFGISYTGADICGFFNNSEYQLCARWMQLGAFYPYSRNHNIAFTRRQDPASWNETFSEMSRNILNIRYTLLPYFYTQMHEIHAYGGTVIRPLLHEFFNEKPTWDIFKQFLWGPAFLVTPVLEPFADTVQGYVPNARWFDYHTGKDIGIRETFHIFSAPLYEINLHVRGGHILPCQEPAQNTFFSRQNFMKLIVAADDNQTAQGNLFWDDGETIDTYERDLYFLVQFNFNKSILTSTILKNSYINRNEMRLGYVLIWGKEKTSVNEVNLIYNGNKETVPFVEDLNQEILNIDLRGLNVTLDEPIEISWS
T3 sequence (P56729 with tags, fused parts or gaps): as above

For the compound `O=P(O)(O)OC[C@H]1NC[C@H](O)[C@@H](O)[C@@H]1O` [DNJ-6-P, deoxynojirimycin-6-phosphate], the results for the Ki in data set [1] (setting [6]) and in data set [2] (setting [7]) were 520 µM and 6600 µM, respectively.
`CCCCN1C[C@H](O)[C@@H](O)[C@H](O)[C@H]1CO` [N-BuDNJ, N-butyldeoxynojirimycin]: in data set [1], the “Inhibition of sucrase (in words)” value is listed as “potent inhibitor” and the Ki was 0.18 µM. Further, the “Inhibition of maltase (in words)” value in data set [3] was “potent inhibitor”. The inhibition constant Ki in data set [2] was found to be 0.22 µM. In addition, in data set [4], the “Reduction of virus titer” value is “greater than five logarithms”.
Turning to `CCCCN1C[C@H](O)[C@@H](O)[C@H](O)[C@H]1COP(=O)(O)O` [N-BuDNJ-6-P, N-butyldeoxynojirimycin-6-phosphate], the “Inhibition of sucrase (in words)” value in data set [1] is reported as “very weak inhibitor”. Also, the Ki came out at 1500 µM in data set [1] (setting [6]) and 4000 µM in data set [2] (setting [7]). The “Inhibition of maltase (in words)” value in data set [3] is given as “very weak inhibitor”. In data set [2], the “Inhibition of α-glucosidase I (in words)” value is listed as “very weak inhibitor”. Also, the “Dephosphorylation by alkaline phosphatase” value in data set [5] (listed as N-Butyldeoxynojirimycin-6-phosphate) is “completely dephosphorylated”; in data set [5] (listed as N-butyl-deoxynojirimycin-6-phosphate) it was “completely dephosphorylted”.
As for `OC[C@H]1NC[C@H](O)[C@@H](O)[C@@H]1O` [DNJ, deoxynojirimycin], the values for the Ki in data set [1] and in data set [2] were 0.05 µM and 0.83 µM, respectively.
Consider `O[C@H]1[C@H](O)[C@@H](O)CN2CC[C@H](O)[C@H]12` [Castanospermine, castanospermine], for which the Ki turned out to be 0.064 µM in data set [1] (setting [6]) and 0.04 µM in data set [2] (setting [7]).

Values taken from patent publication US5043273A, “Phosphorylated glycosidase inhibitor prodrugs” (Monsanto Company, priority 1989, dated 1991).
